Experimental data from article PMC12612990, “PNA5, a glycosylated angiotensin-(1−7) mas receptor agonist for vascular dementia: A two species toxicology and toxicokinetic study” (Toxicology Reports, 2025).
Peptide text beside a SMILES is read from it. * marks the point of attachment. βGlc = OC[C@H]1O[C@@H](*)[C@H](O)[C@@H](O)[C@@H]1O

Experiment: Toxicokinetics of PNA5 in Beagle dog plasma
Details: for Cmax: Beagle dogs, noncompartmental; for Tmax: table: average (range), text b115: median; for AUC0–2hr accumulation ratio: day 28 vs day 1, sexes combined; for fold increase in AUC0–2hr for a 20-fold increase in dose / fold increase in Cmax for a 20-fold increase in dose: 1 to 20 mg/kg/day; for time post-dose up to which PNA5 was quantifiable: days 1 and 28, limit of quantitation 5 ng/mL
Procedure: Toxicokinetic (TK) of PNA5 was obtained from plasma following a single and repeated subcutaneous injection administration of PNA5 once daily for 28 days. Blood samples were collected on days 1 and 28 at the following time points: pre-dose and at approximately 5, 15, 30, 60, and 120 min post-dose (equivalent to 0.083, 0.25, 0.5, 1, and 2 h).
For the rat study, a total of 6 rats for each sex were assigned randomly to treatment groups 2–4 (those treated with PNA5). Three rats per sex were assigned to group 1 (vehicle control). Rats were sampled in satellite groups; rats' blood was taken at alternating time points, resulting in a total n = 3 per time point for six animals. For the dog study, three animals per sex were assigned to group 2 and group 3, and five animals per sex were assigned to group 1 and group 4. Blood was collected from canines via venipuncture.
Blood was collected in heparinized tubes containing a protease inhibitor cocktail consisting of 4 mM 0-phenanthroline, 1.2 mM pepstatin A, and 0.5 M EDTA. Blood samples were centrifuged for 15 min at 2500 x g at room temperature. Plasma was transferred into pre-cooled, pre-labeled collection tubes, frozen immediately in liquid nitrogen/dry ice, and stored at −80 °C until analysis.
PNA5 levels were analyzed using ultra-high performance liquid chromatography (UHPLC) with tandem mass spectrometric (MS/MS) detection. Precision and accuracy, reproducibility, selectivity, carryover, recovery, matrix effects, dilution integrity, hemolysis, stock stability, and matrix stability were assessed prior to initiation of the validation. Samples (5 µL) were injected onto the column and separated using gradient elution. Target compounds were quantified by summing the height of previously identified fragment peaks in the LC-MS [3] spectra. The serum concentrations were estimated using a calibration curve, accounting for the dilution factors and the probe recoveries for each experiment. Standards were matrix-matched to samples and underwent the same sample preparation steps.
A noncompartmental analysis was used for parameter estimation. For PNA5 in plasma, the extravascular model was used for parameter estimation. For the rat study, all parameters were generated from PNA5 individual concentrations in plasma from days 1 and 28. Parameters were estimated using nominal dose levels and nominal sampling times relative to the dose administration. Plasma concentration values obtained at the pre-dose time point were used as the concentration at time 0 on days 1 and 28. For the dog study, all parameters were generated from PNA5 individual concentrations in plasma from days 1 and 28. Parameters were estimated using nominal dose levels and nominal sampling times relative to dose administration. Plasma concentration values obtained at the pre-dose time point were used as the concentration at time 0 on days 1 and 28. For Beagle dogs, concentration values reported as below the limit of quantitation (< 5 ng/mL) were assigned a value of 0.
The toxicokinetic parameters evaluated included the area under the curve of the plasma PNA5 concentration against time from time 0 (pre-dose) to 2 h (post-dose) (AUC0–2hr), the maximum plasma concentration (Cmax), time to maximum plasma concentration (Tmax), elimination rate (Kel), and the half-life. The area under the concentration vs. time curve was calculated using the linear trapezoidal method with linear interpolation for all profiles with at least three consecutive quantifiable concentrations. Kel was calculated from the slope using exponential regression of concentration versus time (Excel); exponential interpolations for all profiles include at least three concentrations plotted against time. Time 0 values and all concentrations listed as zero were excluded from Kel calculations. The half-life was calculated from Kel via the following equation: half-life Ln(2)/Kel.

CC[C@H](C)[C@H](NC(=O)[C@H](Cc1ccc(O)cc1)NC(=O)[C@@H](NC(=O)[C@H](CCCNC(=N)N)NC(=O)[C@@H](N)CC(=O)O)C(C)C)C(=O)N[C@@H](Cc1c[nH]cn1)C(=O)N[C@@H](CO[C@@H]1O[C@H](CO)[C@@H](O)[C@H](O)[C@H]1O)C(N)=O [PNA5, Ang-1–6-Ser-O-Glu-NH2] (H-DRVYIHS(βGlc)-NH2)
AUC(0-t) (both, Beagle, dog, plasma, sc, 1 mg/kg/day, AUC0–2, dogs, plasma, s.c. 1 mg/kg/day, day 1, sexes combined, mean ± SD, n = 6, linear trapezoidal): 63.5 ± 14.8 ng·h/mL | Cmax (both, Beagle, dog, plasma, sc, 1 mg/kg/day, plasma, s.c. once daily 1 mg/kg/day, day 1, sexes combined, mean ± SD, n = 6, UHPLC-MS/MS): 110 ± 37.3 ng/mL | Cmax (both, Beagle, dog, plasma, sc, 1 mg/kg/day, plasma, s.c. once daily 1 mg/kg/day, day 28, sexes combined, mean ± SD, n = 6, UHPLC-MS/MS): 146 ± 59.6 ng/mL | half-life (both, Beagle, dog, plasma, sc, 1 mg/kg/day, dogs, plasma, s.c. 1 mg/kg/day, day 1, sexes combined, mean ± SD, n = 6, Ln(2)/Kel): 17.4 ± 6 min | half-life (both, Beagle, dog, plasma, sc, 1 mg/kg/day, dogs, plasma, s.c. 1 mg/kg/day, day 28, sexes combined, mean ± SD, n = 6, Ln(2)/Kel): 15.6 ± 4.8 min | Tmax (both, Beagle, dog, plasma, sc, 1 mg/kg/day, Tmax, dogs, plasma, s.c. 1 mg/kg/day, day 1, sexes combined): 10 min | AUC(0-t) (both, Beagle, dog, plasma, sc, 5 mg/kg/day, AUC0–2, dogs, plasma, s.c. 5 mg/kg/day, day 1, sexes combined, mean ± SD, n = 6, linear trapezoidal): 358 ± 95.1 ng·h/mL | AUC(0-t) (both, Beagle, dog, plasma, sc, 5 mg/kg/day, AUC0–2, dogs, plasma, s.c. 5 mg/kg/day, day 28, sexes combined, mean ± SD, n = 6, linear trapezoidal): 365 ± 42.6 ng·h/mL | Cmax (both, Beagle, dog, plasma, sc, 5 mg/kg/day, plasma, s.c. once daily 5 mg/kg/day, day 1, sexes combined, mean ± SD, n = 6, UHPLC-MS/MS): 496 ± 115 ng/mL | Cmax (both, Beagle, dog, plasma, sc, 5 mg/kg/day, plasma, s.c. once daily 5 mg/kg/day, day 28, sexes combined, mean ± SD, n = 6, UHPLC-MS/MS): 444 ± 101 ng/mL | half-life (both, Beagle, dog, plasma, sc, 5 mg/kg/day, dogs, plasma, s.c. 5 mg/kg/day, day 1, sexes combined, mean ± SD, n = 6, Ln(2)/Kel): 30 ± 7.8 min | half-life (both, Beagle, dog, plasma, sc, 5 mg/kg/day, dogs, plasma, s.c. 5 mg/kg/day, day 28, sexes combined, mean ± SD, n = 6, Ln(2)/Kel): 34.8 ± 12.6 min | Tmax (both, Beagle, dog, plasma, sc, 5 mg/kg/day, Tmax, dogs, plasma, s.c. 5 mg/kg/day, day 1, sexes combined): 15 min | Tmax (both, Beagle, dog, plasma, sc, 5 mg/kg/day, Tmax, dogs, plasma, s.c. 5 mg/kg/day, day 28, sexes combined): 10 min | AUC(0-t) (both, Beagle, dog, plasma, sc, 20 mg/kg/day, AUC0–2, dogs, plasma, s.c. 20 mg/kg/day, day 1, sexes combined, mean ± SD, n = 10, linear trapezoidal): 1270 ± 270 ng·h/mL | AUC(0-t) (both, Beagle, dog, plasma, sc, 20 mg/kg/day, AUC0–2, dogs, plasma, s.c. 20 mg/kg/day, day 28, sexes combined, mean ± SD, n = 10, linear trapezoidal): 1080 ± 309 ng·h/mL | Cmax (both, Beagle, dog, plasma, sc, 20 mg/kg/day, plasma, s.c. once daily 20 mg/kg/day, day 1, sexes combined, mean ± SD, n = 10, UHPLC-MS/MS): 1440 ± 453 ng/mL | Cmax (both, Beagle, dog, plasma, sc, 20 mg/kg/day, plasma, s.c. once daily 20 mg/kg/day, day 28, sexes combined, mean ± SD, n = 10, UHPLC-MS/MS): 1120 ± 530 ng/mL | half-life (both, Beagle, dog, plasma, sc, 20 mg/kg/day, dogs, plasma, s.c. 20 mg/kg/day, day 1, sexes combined, mean ± SD, n = 10, Ln(2)/Kel): 41.4 ± 6 min | half-life (both, Beagle, dog, plasma, sc, 20 mg/kg/day, dogs, plasma, s.c. 20 mg/kg/day, day 28, sexes combined, mean ± SD, n = 9, Ln(2)/Kel): 48.6 ± 12.6 min | Tmax (both, Beagle, dog, plasma, sc, 20 mg/kg/day, Tmax, dogs, plasma, s.c. 20 mg/kg/day, day 1, sexes combined): 15 min | Tmax (both, Beagle, dog, plasma, sc, 20 mg/kg/day, Tmax, dogs, plasma, s.c. 20 mg/kg/day, day 28, sexes combined): 22.5 min | AUC0–2hr accumulation ratio (dogs, 1 mg/kg/day): 0.99 | AUC0–2hr accumulation ratio (dogs, 5 mg/kg/day): 1.02 | AUC0–2hr accumulation ratio (dogs, 20 mg/kg/day): 0.85 | fold increase in AUC0–2hr for a 20-fold increase in dose (dogs, day 1, sexes combined): ~20.06 fold | fold increase in Cmax for a 20-fold increase in dose (dogs, day 1, sexes combined): ~13.06 fold | fold increase in AUC0–2hr for a 20-fold increase in dose (dogs, day 28, sexes combined): ~17.19 fold | fold increase in Cmax for a 20-fold increase in dose (dogs, day 28, sexes combined): ~7.70 fold | time post-dose up to which PNA5 was quantifiable (dogs, plasma, 1 mg/kg/day): up to 1 h | time post-dose up to which PNA5 was quantifiable (dogs, plasma, 5 and 20 mg/kg/day, last sampling time 2 h): up to 2 h | Kel (dogs, plasma, s.c. 1 mg/kg/day, day 1, sexes combined, mean ± SD, n = 6, exponential regression): 2.63 ± 0.97, 6 hr^–1 | Kel (dogs, plasma, s.c. 1 mg/kg/day, day 28, sexes combined, mean ± SD, n = 6, exponential regression): 2.87 ± 0.86, 6 hr^–1 | AUC0–2 (dogs, plasma, s.c. 1 mg/kg/day, day 28, sexes combined, mean ± SD, n = 6, linear trapezoidal): 62.61 ± 19.05, 6 hr*ng/mL | Tmax (dogs, plasma, s.c. 1 mg/kg/day, day 28, sexes combined): 0.167(0.083–0.25) hr | Kel (dogs, plasma, s.c. 5 mg/kg/day, day 1, sexes combined, mean ± SD, n = 6, exponential regression): 1.44 ± 0.33, 6 hr^–1 | Tmax (dogs, plasma, s.c. 5 mg/kg/day, day 1, sexes combined): 15 min | Kel (dogs, plasma, s.c. 5 mg/kg/day, day 28, sexes combined, mean ± SD, n = 6, exponential regression): 1.32 ± 0.43, 6 hr^–1 | Tmax (dogs, plasma, s.c. 5 mg/kg/day, day 28, sexes combined): 10 min | Kel (dogs, plasma, s.c. 20 mg/kg/day, day 1, sexes combined, mean ± SD, n = 10, exponential regression): 1.02 ± 0.17, 10 hr^–1 | Tmax (dogs, plasma, s.c. 20 mg/kg/day, day 1, sexes combined): 15 min | Kel (dogs, plasma, s.c. 20 mg/kg/day, day 28, sexes combined, mean ± SD, n = 10, exponential regression): 0.86 ± 0.35, 10 hr^–1 | AUC(0-t) (female, Beagle, dog, plasma, sc, 20 mg/kg/day, mean AUC0–2hr, females, dogs, females, 20 mg/kg/day (NOAEL), day 28): 1150 ng·h/mL
